The results in this text go back to publication PMC6534341, “α-Synuclein–Confocal Nanoscanning (ASYN-CONA), a Bead-Based Assay for Detecting Early-Stage α-Synuclein Aggregation” (Analytical Chemistry, 2019).

A word on the IC50: it is the midpoint of a concentration-inhibition curve.

SMILES strings stand for the structures. Where two headings read alike, the source gives them in different places.

This experiment has as its target T1, α-synuclein (Homo sapiens, UniProt P37840, A91C).
T1 construct: gene SNCA
The experiment is described as follows: ASYN-CONA on-bead aggregation assay (confocal bead ring intensity, […] EtOH, […] h). Format: biochemical.

As for `O=c1cc(-c2ccccc2)oc2cc(O)c(O)c(O)c12` [baicalein], the IC50 amounted to 4.32 ± 0.6 µM.

For the molecule `COc1cc(/C=C/C(=O)CC(=O)/C=C/c2ccc(O)c(OC)c2)ccc1O` [curcumin], the IC50 (read-out: IC50) is 2.76 ± 0.89 µM. The same measure, in the same setting: the figure for `CO[C@H]1/C=C/O[C@@]2(C)Oc3c(C)c(O)c4c(O)c(c(/C=N/N5CCN(C)CC5)c(O)c4c3C2=O)NC(=O)/C(C)=C\C=C\[C@H](C)[C@H](O)[C@@H](C)[C@@H](O)[C@@H](C)[C@H](OC(C)=O)[C@@H]1C` [rifampicin] is 502 ± 360 µM.
